Data from patent US5393897A, “Isolation and structure of spongistatins 5,7,8 and 9” (Arizona Board of Regents acting on behalf of Arizona State …, priority 1993, dated 1995).
≈ marks a conversion by molar mass, not a printed value. Read-outs that look alike come from different tables or passages of the source.

Assays:
Type in all cases: cell-based
[1] = system: P388 lymphocytic leukemia cell line; test: P388 lymphocytic leukemia cell line bioassay; conditions: Mus musculus, pure compound
786-0 = test: NCI cell line panel; conditions: Homo sapiens, Renal Cancer; for GI50: read-out: Log10 GI50 (converted); for IC (TGI): read-out: Log10 TGI (converted)
Excerpt: (§1) Only two hundred years ago, many diseases ravaged humankind. Many of these diseases now have been controlled or eradicated. In the development of the means to treat or control these diseases, work with the appropriate common experimental animals was of critical importance. With the various types of cancers, and with the HIV virus, such work is presently ongoing. The research for the treatment of various types of cancer is coordinated in the United States by the National Cancer Institute (NCI). NCI, as a government entity, has been charged with assisting anti-cancer research. To establish whether a substance has anti-cancer activity, NCI has established a variety of protocols, one of which involves testing the candidate substance against a cell line panel containing 60 human tumor cell lines. This protocol has been verified and is generally accepted throughout the scientific community. This protocol and the established statistical means of evaluating the results obtained therefrom have been fully described in the literature. See Principles & Practice of Oncology PPO Updates, Volume 3, Number 10, October 1989, by Michael R. Boyd, M.D., Ph.D., for an in depth description of the test protocol. The statistical analysis is explained in "Display and Analysis of Patterns of Differential Activity of Drugs Against Human Tumor Cell Lines: Development of Means Graph and COMPARE Algorithm" Journal of the National Cancer Institute Reports Vol. 81, No. 14, Pg. 1088, Jul. 14, 1989, by K. D. Paull et al. Both of these references are incorporated herein by this reference thereto. The effectiveness and validity of the NCI in vitro protocol continues to be verified.

A549/ATCC = test: NCI cell line panel; conditions: Homo sapiens, Non-Small Cell Lung Cancer; for GI50: read-out: Log10 GI50 (converted); for IC (TGI): read-out: Log10 TGI (converted)
Excerpt: as §1

ACHN = test: NCI cell line panel; conditions: Homo sapiens, Renal Cancer; for GI50: read-out: Log10 GI50 (converted)
Excerpt: as §1

COLO 205 = test: NCI cell line panel; conditions: Homo sapiens; for LC50 (50% lethal concentration): COLO 205, read-out: Log10 LC50 (converted); for IC (TGI): read-out: Log10 TGI (converted)
Excerpt: as §1

HOP-62 = test: NCI cell line panel; conditions: Homo sapiens
Excerpt: as §1

K-562 = test: NCI cell line panel; conditions: Homo sapiens, K562; Leukemia; read-out: Log10 GI50 (converted)
Excerpt: as §1

MCF7 = test: NCI cell line panel; conditions: Homo sapiens, Breast Cancer; for IC (TGI): read-out: Log10 TGI (converted)
Excerpt: as §1

MDA-MB-231/ATCC = test: NCI cell line panel; conditions: Homo sapiens, Breast Cancer, read-out: Log10 GI50 (converted)
Excerpt: as §1

MOLT-4 = test: NCI cell line panel; conditions: Homo sapiens, Leukemia, read-out: Log10 GI50 (converted)
Excerpt: as §1

NCI-H226 = test: NCI cell line panel; conditions: Homo sapiens, Non-Small Cell Lung Cancer, read-out: Log10 GI50 (converted)
Excerpt: as §1

NCI-H23 = test: NCI cell line panel; conditions: Homo sapiens, Non-Small Cell Lung Cancer, read-out: Log10 GI50 (converted)
Excerpt: as §1

NCI-H322M = test: NCI cell line panel; conditions: Homo sapiens, Non-Small Cell Lung Cancer; for GI50: read-out: Log10 GI50 (converted)
Excerpt: as §1

OVCAR-8 = test: NCI cell line panel; conditions: Homo sapiens, Ovarian Cancer, read-out: Log10 GI50 (converted)
Excerpt: as §1

PC-3 = test: NCI cell line panel; conditions: Homo sapiens, Prostate Cancer; for GI50: read-out: Log10 GI50 (converted); for IC (TGI): read-out: Log10 TGI (converted)
Excerpt: as §1

RXF-393 = test: NCI cell line panel; conditions: Homo sapiens, Renal Cancer; for GI50: read-out: Log10 GI50 (converted)
Excerpt: as §1

SF-295 = test: NCI cell line panel; conditions: Homo sapiens
Excerpt: as §1

SN12C = test: NCI cell line panel; conditions: Homo sapiens, Renal Cancer; for GI50: read-out: Log10 GI50 (converted)
Excerpt: as §1

SNB-19 = test: NCI cell line panel; conditions: Homo sapiens; for IC (TGI): read-out: Log10 TGI (converted)
Excerpt: as §1

HT29 = test: NCI cell line panel; conditions: Homo sapiens, HT-29; Colon Cancer; read-out: Log10 GI50 (converted)
Excerpt: as §1

M14 = test: NCI cell line panel; conditions: Homo sapiens, Melanoma, read-out: Log10 GI50 (converted)
Excerpt: as §1

MALME-3M = test: NCI cell line panel; conditions: Homo sapiens, read-out: Log10 GI50 (converted)
Excerpt: as §1

NCI-H460 = test: NCI cell line panel; conditions: Homo sapiens
Excerpt: as §1

SK-MEL-28 = test: NCI cell line panel; conditions: Homo sapiens, SK-MEL-28, read-out: Log10 GI50 (converted)
Excerpt: as §1

SK-MEL-2 = test: NCI cell line panel; conditions: Homo sapiens, Melanoma, read-out: Log10 GI50 (converted)
Excerpt: as §1

SK-MEL-5 = test: NCI cell line panel; conditions: Homo sapiens, Melanoma, read-out: Log10 GI50 (converted)
Excerpt: as §1

SW-620 = test: NCI cell line panel; conditions: Homo sapiens, SW-620, read-out: Log10 GI50 (converted)
Excerpt: as §1

UACC-257 = test: NCI cell line panel; conditions: Homo sapiens, Melanoma, read-out: Log10 GI50 (converted)
Excerpt: as §1

Melanoma = test: NCI cell line panel, melanoma lines, value not assignable to a single line; conditions: Homo sapiens, 7 values printed for 8 cell lines, in printed order, read-out: Log10 TGI (converted)
Excerpt: as §1, with “The statistical analysis is explained in "Display and Analysis of Patterns of Differential Activity of Drugs Against Human Tumor Cell Lines: Development of Means Graph and COMPARE Algorithm" Journal of the National Cancer Institute Reports Vol. 81, No. 14, Pg. 1088, Jul. 14, 1989, by K. D. Paull et al. Both of these references are incorporated herein by this reference thereto. The effectiveness and validity of the NCI in vitro protocol continues to be verified.” left out

Breast Cancer = test: NCI cell line panel, breast cancer line, BT-549 or T-47D not assignable; conditions: Homo sapiens, last of 7 values for 8 lines, read-out: Log10 GI50 (converted)
Excerpt: as §1, with “The statistical analysis is explained in "Display and Analysis of Patterns of Differential Activity of Drugs Against Human Tumor Cell Lines: Development of Means Graph and COMPARE Algorithm" Journal of the National Cancer Institute Reports Vol. 81, No. 14, Pg. 1088, Jul. 14, 1989, by K. D. Paull et al. Both of these references are incorporated herein by this reference thereto. The effectiveness and validity of the NCI in vitro protocol continues to be verified.” left out

[2] = read-out: Log10 TGI (converted)

SMILES: C=C(Cl)/C=C/C(O)CC(=C)CC1OC2C(C)C(OC(=O)CC3CC(O)CC4(CC(C)(O)CC(C=C5COC(C(C)C(=O)CC6CC(OC)CC7(CC(O)CC(/C=C\CCCC8OC(O)(CC(O)C8C)C2O)O7)O6)C5C)O4)O3)C1O (stereo not shown) [spongistatin 5]
- IC50 ([1]; PS (P388), read-out: ED50 (the source's name)): 0.066 ng/mL (≈ 0.058 nM)
- GI50 (786-0): 0.0251 nM
- IC (TGI) (786-0): 1.2 nM
- GI50 (A549/ATCC): 0.0209 nM
- IC (TGI) (A549/ATCC): 75.9 nM
- GI50 (ACHN): 0.562 nM
- LC50 (50% lethal concentration) (COLO 205): 7.94 nM
- GI50 (COLO 205; COLO 205, Colon Cancer, read-out: Log10 GI50 (converted)): 0.0129 nM
- IC (TGI) (COLO 205; COLO 205, Colon Cancer): 0.871 nM
- GI50 (HOP-62; HOP-62, Non-Small Cell Lung Cancer, read-out: Log10 GI50 (converted)): 0.151 nM
- GI50 (K-562): 0.1 nM
- IC (TGI) (MCF7): 39.8 nM
- GI50 (MDA-MB-231/ATCC): 0.251 nM
- GI50 (MOLT-4): 0.0372 nM
- GI50 (NCI-H226): 0.759 nM
- GI50 (NCI-H23): 0.0347 nM
- GI50 (NCI-H322M): 0.0891 nM
- GI50 (OVCAR-8): 0.257 nM
- GI50 (PC-3): 0.0151 nM
- IC (TGI) (PC-3): 100 nM
- GI50 (RXF-393): 0.0417 nM
- GI50 (SF-295; SF-295, CNS Cancer, read-out: Log10 GI50 (converted)): 0.011 nM
- GI50 (SN12C): 0.0603 nM
- GI50 (SNB-19; SNB-19, read-out: Log10 GI50 (converted)): 0.407 nM
- IC (TGI) (SNB-19; SNB-19, CNS Cancer): 100 nM

SMILES: C=C/C=C/C(O)CC(=C)CC1OC2C(C)C(OC(=O)CC3CC(O)CC4(CC(C)(O)CC(C=C5COC(C(C)C(=O)CC6CC(OC)CC7(CC(O)CC(/C=C\CCCC8OC(O)(CC(O)C8C)C2O)O7)O6)C5C)O4)O3)C1O (stereo not shown) [spongistatin 7]
- IC50 ([1]; P388, unit inferred, read-out: P388 ED50): 2.6 ng/mL (≈ 2.36 nM)
- GI50 (786-0): 2 nM
- IC (TGI) (786-0): 100 nM
- GI50 (A549/ATCC): 3.47 nM
- IC (TGI) (A549/ATCC): 100 nM
- GI50 (ACHN): 10 nM
- IC (TGI) (ACHN; [2]): 100 nM
- GI50 (COLO 205; COLO 205, read-out: Log10 GI50 (converted)): 0.331 nM
- LC50 (50% lethal concentration) (COLO 205): 75.9 nM
- IC (TGI) (COLO 205; COLO 205, Colon Cancer): 3.8 nM
- GI50 (HOP-62; HOP-62, read-out: Log10 GI50 (converted)): 1 nM
- GI50 (HT29): 1.51 nM
- GI50 (K-562): 0.151 nM
- GI50 (M14): 0.49 nM
- GI50 (MALME-3M): 0.398 nM
- GI50 (MCF7; read-out: Log10 GI50 (converted)): 0.17 nM
- IC (TGI) (MCF7): 100 nM
- GI50 (MDA-MB-231/ATCC): 1.58 nM
- GI50 (MOLT-4): 0.575 nM
- GI50 (NCI-H226): 2 nM
- GI50 (NCI-H23): 0.708 nM
- GI50 (NCI-H322M): 3.24 nM
- IC (TGI) (NCI-H322M; [2]): 100 nM
- GI50 (NCI-H460; NCI-H460, read-out: Log10 GI50 (converted)): 2.09 nM
- IC (TGI) (NCI-H460; NCI-H460, Non-Small Cell Lung Cancer, read-out: Log10 TGI (converted)): 100 nM
- GI50 (OVCAR-8): 3.98 nM
- GI50 (PC-3): 0.372 nM
- IC (TGI) (PC-3): 52.5 nM
- GI50 (RXF-393): 2.69 nM
- IC (TGI) (RXF-393; [2]): 100 nM
- GI50 (SF-295; SF-295, read-out: Log10 GI50 (converted)): 0.407 nM
- GI50 (SK-MEL-28): 1.29 nM
- GI50 (SK-MEL-2): 0.347 nM
- GI50 (SK-MEL-5): 0.0851 nM
- GI50 (SN12C): 2.19 nM
- IC (TGI) (SN12C; [2]): 100 nM
- GI50 (SNB-19; SNB-19, CNS Cancer, read-out: Log10 GI50 (converted)): 8.32 nM
- IC (TGI) (SNB-19; SNB-19, CNS Cancer): 100 nM
- GI50 (SW-620): 0.389 nM
- GI50 (UACC-257): 14.1 nM
- IC (TGI) (Melanoma): 46.8 nM
- GI50 (Breast Cancer): 100 nM
